These results are taken from patent publication US20240246977A1, “DEGRADATION OF BRUTON'S TYROSINE KINASE (BTK) BY CONJUGATION OF BTK INHIBITORS WITH E3 LIGASE LIGAND AND METHOD OF USE” (BeiGene Switzerland GmbH, priority 2021, published 2024).

Some results are limits rather than exact numbers.

One test has as its target BTK (Homo sapiens, UniProt Q06187). Briefly: BTK cell degradation in TMD-8 cells, HTRF assay. Details: endogenous in cells; host or cells: TMD-8 cells. The format is cell-based. Conditions: 6 h treatment, IC50 (DC50) of BTK degradation. In outline: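 TMD-8 cells treated 6 h with 8-dose series (6-fold dilutions, 0.2% DMSO final), then lysed and BTK quantified by HTRF (337/665/620 nm) after overnight antibody incubation at room temperature. Degradation normalized to DMSO high and low controls; DC50 and Dmax from four-parameter fit.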
(Time-resolved FRET reads energy transfer from a long-lived donor to a nearby acceptor.)

Another test deals with HEK-293 cells. Briefly: HEK-293 cytotoxicity detection (CellTiter-Glo). The following applies: Homo sapiens, 72 h, 72 h incubation, CellTiter-Glo luminescence, read-out: HEK293. The format is cell-based. In outline: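 HEK-293 cells exposed 72 h to 8 compounds doses (4-fold dilutions, top stock 5 mM at 500×) in 0.2% DMSO. Viability by CellTiter-Glo luminescence; inhibition normalised to DMSO high control and low control, IC50 from four-parameter curve fit.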
Background: In ATP-based viability assays light output follows the ATP content of the culture.

Chain of BTK (Q06187 whole entry): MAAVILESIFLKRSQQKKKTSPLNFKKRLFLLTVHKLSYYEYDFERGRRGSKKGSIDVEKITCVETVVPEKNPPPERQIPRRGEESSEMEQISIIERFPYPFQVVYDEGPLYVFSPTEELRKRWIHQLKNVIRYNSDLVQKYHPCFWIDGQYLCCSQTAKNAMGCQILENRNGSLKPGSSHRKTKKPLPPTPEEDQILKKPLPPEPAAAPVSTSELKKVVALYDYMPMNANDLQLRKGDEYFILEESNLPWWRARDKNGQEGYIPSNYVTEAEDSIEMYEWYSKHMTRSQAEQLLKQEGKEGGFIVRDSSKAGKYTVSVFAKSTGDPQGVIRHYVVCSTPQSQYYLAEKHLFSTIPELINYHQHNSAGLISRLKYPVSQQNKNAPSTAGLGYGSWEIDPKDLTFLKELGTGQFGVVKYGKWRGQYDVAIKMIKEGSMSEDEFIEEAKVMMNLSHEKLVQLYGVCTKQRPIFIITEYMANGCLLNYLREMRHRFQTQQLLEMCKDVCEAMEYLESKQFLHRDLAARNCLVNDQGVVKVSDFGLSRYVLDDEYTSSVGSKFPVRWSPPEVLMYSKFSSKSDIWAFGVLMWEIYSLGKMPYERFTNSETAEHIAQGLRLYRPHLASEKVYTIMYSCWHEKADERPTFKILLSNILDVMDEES

By DC50 is commonly meant the midpoint of the concentration-degradation curve. A low value points to degradation at low concentration. `COc1ccccc1C(=O)NC(C)c1ccc(-c2nn3c(c2C(N)=O)Nc2ccc(N4CCN(CC5CCN(c6ccc(N7CCC(=O)NC7=O)cc6)CC5)CC4)cc2CC3)cc1` (centres unmarked) [Example C5, 7-(4-((1-(4-(2,4-dioxotetrahydropyrimidin-1(2H)-yl)phenyl)piperidin-4-yl)methyl)piperazin-1-yl)-2-(4-(1-(2-methoxybenzamido)ethyl)phenyl)-9,10-dihydro-4H-benzo[d]pyrazolo[1,5-a][1,3]diazepine-3-carboxamide] gave a DC50 on BTK of 3.82 nM. In addition, the IC50 in the test with HEK-293 cells was > 10000 nM.

For the compound `COc1ccc(Cl)cc1C(=O)NCc1ccc(-c2nn3c(c2C(N)=O)Nc2ccc(N4CCN(CC5CCN(c6ccc(N7CCC(=O)NC7=O)cc6)CC5)CC4)cc2CC3)cc1C` [Example C6, 2-(4-((5-chloro-2-methoxybenzamido)methyl)-3-methylphenyl)-7-(4-((1-(4-(2,4-dioxotetrahydropyrimidin-1(2H)-yl)phenyl)piperidin-4-yl)methyl)piperazin-1-yl)-9,10-dihydro-4H-benzo[d]pyrazolo[1,5-a][1,3]diazepine-3-carboxamide], the DC50 on BTK was found to be 3.4 nM. In addition, the IC50 in the test on HEK-293 cells was > 10000 nM.

In the case of `Cc1cc(-c2nn3c(c2C(N)=O)Nc2ccc(N4CCN(CC5CCN(c6ccc(N7CCC(=O)NC7=O)cc6)CC5)CC4)cc2CC3)ccc1CNC(=O)c1noc(C(C)(C)C)n1` [Example C7, 5-(tert-butyl)-N-(4-(3-carbamoyl-7-(4-((1-(4-(2,4-dioxotetrahydropyrimidin-1(2H)-yl)phenyl)piperidin-4-yl)methyl)piperazin-1-yl)-9,10-dihydro-4H-benzo[d]pyrazolo[1,5-a][1,3]diazepin-2-yl)-2-methylbenzyl)-1,2,4-oxadiazole-3-carboxamide], half-maximal degradation on BTK (DC50) was put at 22.7 nM. Further, in the test with HEK-293 cells, the IC50 is > 10000 nM.

`Cc1cc(-c2nn3c(c2C(N)=O)Nc2ccc(N4CCN(CC5CCN(c6ccc(N7CCC(=O)NC7=O)cc6)CC5)CC4)cc2CC3)ccc1CNC(=O)c1nc(C(C)(C)C)no1` [Example C8, 3-(tert-butyl)-N-(4-(3-carbamoyl-7-(4-((1-(4-(2,4-dioxotetrahydropyrimidin-1(2H)-yl)phenyl)piperidin-4-yl)methyl)piperazin-1-yl)-9,10-dihydro-4H-benzo[d]pyrazolo[1,5-a][1,3]diazepin-2-yl)-2-methylbenzyl)-1,2,4-oxadiazole-5-carboxamide] yielded a 50% degradation concentration (DC50) on BTK of 15.6 nM. The IC50 in the test on HEK-293 cells was > 10000 nM.

Regarding `Cc1cc(-c2nn3c(c2C(N)=O)Nc2ccc(N4CCN(CC5CCN(c6ccc(N7CCC(=O)NC7=O)cc6)CC5)CC4)cc2CC3)ccc1CNC(=O)c1ccn(C(C)(C)C)n1` [Example C9, 2-(4-((1-(tert-butyl)-1H-pyrazole-3-carboxamido)methyl)-3-methylphenyl)-7-(4-((1-(4-(2,4-dioxotetrahydropyrimidin-1(2H)-yl)phenyl)piperidin-4-yl)methyl)piperazin-1-yl)-9,10-dihydro-4H-benzo[d]pyrazolo[1,5-a][1,3]diazepine-3-carboxamide], half-maximal degradation at BTK (DC50) was put at 54.2 nM. In the test on HEK-293 cells, the IC50 was > 10000 nM.

On BTK, `COc1ccc2ccccc2c1C(=O)NCc1ccc(-c2nn3c(c2C(N)=O)Nc2ccc(N4CCN(CC5CCN(c6ccc(N7CCC(=O)NC7=O)cc6)CC5)CC4)cc2CC3)cc1C` [Example C10, 7-(4-((1-(4-(2,4-dioxotetrahydropyrimidin-1(2H)-yl)phenyl)piperidin-4-yl)methyl)piperazin-1-yl)-2-(4-((2-methoxy-1-naphthamido)methyl)-3-methylphenyl)-9,10-dihydro-4H-benzo[d]pyrazolo[1,5-a][1,3]diazepine-3-carboxamide] displayed a 50% degradation concentration (DC50) of 10.1 nM. For the same compound, the IC50 in the test with HEK-293 cells is > 10000 nM.

At BTK, `COc1ccc(C(F)(F)F)cc1C(=O)NCc1ccc(-c2nn3c(c2C(N)=O)Nc2ccc(N4CCN(CC5CCN(c6ccc(N7CCC(=O)NC7=O)cc6)CC5)CC4)cc2CC3)cc1C` [Example C11, 7-(4-((1-(4-(2,4-dioxotetrahydropyrimidin-1(2H)-yl)phenyl)piperidin-4-yl)methyl)piperazin-1-yl)-2-(4-((2-methoxy-5-(trifluoromethyl)benzamido)methyl)-3-methylphenyl)-9,10-dihydro-4H-benzo[d]pyrazolo[1,5-a][1,3]diazepine-3-carboxamide] returned a DC50 of 3.36 nM. For the same compound, the IC50 in the test with HEK-293 cells was > 10000 nM.

On to `CC(C)(C)c1noc(C(=O)NCc2ccc(-c3nn4c(c3C(N)=O)Nc3ccc(N5CCN(CC6CCN(c7ccc(N8CCC(=O)NC8=O)cc7)CC6)CC5)cc3CC4)cc2)n1` [Example C12, 3-(tert-butyl)-N-(4-(3-carbamoyl-7-(4-((1-(4-(2,4-dioxotetrahydropyrimidin-1(2H)-yl)phenyl)piperidin-4-yl)methyl)piperazin-1-yl)-9,10-dihydro-4H-benzo[d]pyrazolo[1,5-a][1,3]diazepin-2-yl)benzyl)-1,2,4-oxadiazole-5-carboxamide], for which the DC50 on BTK was 1.82 nM. The IC50 in the test with HEK-293 cells was > 10000 nM.

With `COc1ccc2ccccc2c1C(=O)N[C@H](C)c1ccc(-c2nn3c(c2C(N)=O)Nc2ccc(N4CCN(CC5CCN(c6ccc(N7CCC(=O)NC7=O)cc6)CC5)CC4)cc2CC3)cc1` [Example C13, (R)-7-(4-((1-(4-(2,4-dioxotetrahydropyrimidin-1(2H)-yl)phenyl)piperidin-4-yl)methyl)piperazin-1-yl)-2-(4-(1-(2-methoxy-1-naphthamido)ethyl)phenyl)-9,10-dihydro-4H-benzo[d]pyrazolo[1,5-a][1,3]diazepine-3-carboxamide], it took 11.6 nM to reach half-maximal degradation on BTK (DC50). In addition, in the test on HEK-293 cells, the IC50 is > 10000 nM.

Consider `COc1ccccc1C(=O)N[C@H](C)c1ccc(-c2nn3c(c2C(N)=O)Nc2ccc(N4CCN(CC5CCN(c6ccc(N7CCC(=O)NC7=O)cc6)CC5)CC4)cc2CC3)cc1` [Example C14, (R)-7-(4-((1-(4-(2,4-dioxotetrahydropyrimidin-1(2H)-yl)phenyl)piperidin-4-yl)methyl)piperazin-1-yl)-2-(4-(1-(2-methoxybenzamido)ethyl)phenyl)-9,10-dihydro-4H-benzo[d]pyrazolo[1,5-a][1,3]diazepine-3-carboxamide], for which, on BTK, it took 2.76 nM to reach half-maximal degradation (DC50). In addition, the IC50 with HEK-293 cells is > 10000 nM.

`CC(Nc1cc(C(F)(F)F)ccn1)c1ccc(-c2nn3c(c2C(N)=O)Nc2ccc(N4CCN(CC5CCN(c6ccc(N7CCC(=O)NC7=O)cc6)CC5)CC4)cc2CC3)cc1` (centres unmarked) [Example C15, 7-(4-((1-(4-(2,4-dioxotetrahydropyrimidin-1(2H)-yl)phenyl)piperidin-4-yl)methyl)piperazin-1-yl)-2-(4-(1-((4-(trifluoromethyl)pyridin-2-yl)amino)ethyl)phenyl)-9,10-dihydro-4H-benzo[d]pyrazolo[1,5-a][1,3]diazepine-3-carboxamide] showed a DC50 at BTK of 14.6 nM. For the same compound, the IC50 in the test with HEK-293 cells came to 8850 nM.

At BTK, `NC(=O)c1c(-c2ccc(C3(Nc4cc(C(F)(F)F)ccn4)CC3)cc2)nn2c1Nc1ccc(N3CCN(CC4CCN(c5ccc(N6CCC(=O)NC6=O)cc5)CC4)CC3)cc1CC2` [Example C16, 7-(4-((1-(4-(2,4-dioxotetrahydropyrimidin-1(2H)-yl)phenyl)piperidin-4-yl)methyl)piperazin-1-yl)-2-(4-(1-((4-(trifluoromethyl)pyridin-2-yl)amino)cyclopropyl)phenyl)-9,10-dihydro-4H-benzo[d]pyrazolo[1,5-a][1,3]diazepine-3-carboxamide] showed a half-maximal degradation concentration (DC50) of 60.1 nM. Moreover, the IC50 in the test on HEK-293 cells is > 10000 nM.

On to `CCC(Nc1cc(C(F)(F)F)ccn1)c1ccc(-c2nn3c(c2C(N)=O)Nc2ccc(N4CCN(CC5CCN(c6ccc(N7CCC(=O)NC7=O)cc6)CC5)CC4)cc2CC3)cc1` (centres unmarked) [Example C17, 7-(4-((1-(4-(2,4-dioxotetrahydropyrimidin-1(2H)-yl)phenyl)piperidin-4-yl)methyl)piperazin-1-yl)-2-(4-(1-((4-(trifluoromethyl)pyridin-2-yl)amino)propyl)phenyl)-9,10-dihydro-4H-benzo[d]pyrazolo[1,5-a][1,3]diazepine-3-carboxamide], for which the DC50 at BTK was found to be 55.1 nM. Besides, the IC50 in the test on HEK-293 cells is > 10000 nM.

The compound `COc1ccncc1C(=O)N[C@H](C)c1ccc(-c2nn3c(c2C(N)=O)Nc2ccc(N4CCN(CC5CCN(c6ccc(N7CCC(=O)NC7=O)cc6)CC5)CC4)cc2CC3)cc1` [Example C18, (R)-7-(4-((1-(4-(2,4-dioxotetrahydropyrimidin-1(2H)-yl)phenyl)piperidin-4-yl)methyl)piperazin-1-yl)-2-(4-(1-(4-methoxynicotinamido)ethyl)phenyl)-9,10-dihydro-4H-benzo[d]pyrazolo[1,5-a][1,3]diazepine-3-carboxamide] displayed a DC50 on BTK of 12.5 nM. The IC50 with HEK-293 cells was > 10000 nM.

At BTK, `COc1ccccc1C(=O)NCc1ccc(-c2nn3c(c2C(N)=O)Nc2ccc(N4CCN(CC5CCN(c6ccc(N7CCC(=O)NC7=O)cc6)CC5)CC4)cc2CC3)cc1F` [Example C19, 7-(4-((1-(4-(2,4-dioxotetrahydropyrimidin-1(2H)-yl)phenyl)piperidin-4-yl)methyl)piperazin-1-yl)-2-(3-fluoro-4-((2-methoxybenzamido)methyl)phenyl)-9,10-dihydro-4H-benzo[d]pyrazolo[1,5-a][1,3]diazepine-3-carboxamide] returned a 50% degradation concentration (DC50) of 0.848 nM. In addition, in the test on HEK-293 cells, the IC50 was determined as 142 nM.

Consider `COc1ccc2ccccc2c1C(=O)NCc1ccc(-c2nn3c(c2C(N)=O)Nc2ccc(N4CCN(CC5CCN(c6ccc(N7CCC(=O)NC7=O)cc6)CC5)CC4)cc2CC3)cc1F` [Example C20, 7-(4-((1-(4-(2,4-dioxotetrahydropyrimidin-1(2H)-yl)phenyl)piperidin-4-yl)methyl)piperazin-1-yl)-2-(3-fluoro-4-((2-methoxy-1-naphthamido)methyl)phenyl)-9,10-dihydro-4H-benzo[d]pyrazolo[1,5-a][1,3]diazepine-3-carboxamide], for which the DC50 on BTK amounted to 0.956 nM. Moreover, the IC50 with HEK-293 cells was > 10000 nM.
